Reference: ChEMBL document CHEMBL3507680, “University of Dundee, Gates Library screen for HepG2 cell viability”

Test: Human HepG2 cell viability assay in 384 well format
Format: toxicity, cell-based
Parameters: dose 125 nL, time 70.5 hour; concentration not given beside the values
Conditions: HepG2 cells, read-out: Inhibition

O=C(Nc1ccc(Cl)cc1C(=O)NCCN1CCOCC1)c1ccco1
cytotoxicity at 70.5 h: -0.882%

CCC(CC)C(=O)NCc1cnn(CC)c1
cytotoxicity at 70.5 h: -13.4%

O=C(c1ccc(F)c(F)c1)N1CCN2CCCC2C1 (stereo unspecified)
cytotoxicity at 70.5 h: 3.92%

Cc1cc(C(F)(F)F)nn1CCCNC(=O)C1CCC1
cytotoxicity at 70.5 h: -4.63%

CCCN1CCN(C(=O)Cn2nc(C(F)(F)F)c(Br)c2C2CC2)CC1
cytotoxicity at 70.5 h: -6.28%

CCN1CCN(C(=O)Cn2nc(C(F)(F)F)c(Br)c2C2CC2)CC1
cytotoxicity at 70.5 h: -7.97%

O=C(CCn1cc(Cl)cn1)Nc1ccc2c(c1)OCCO2
cytotoxicity at 70.5 h: -8.19%

Cc1nn(Cc2ccc(C(=O)NC3CCS(=O)(=O)C3)cc2)c(C)c1Br (stereo unspecified)
cytotoxicity at 70.5 h: 3.3%

CC1CCCN(C(=O)c2ccn(COc3ccccc3)n2)C1 (stereo unspecified)
cytotoxicity at 70.5 h: 12.9%

CC1CCN(C(=O)c2ccn(COc3ccccc3)n2)CC1
cytotoxicity at 70.5 h: -4.91%

Cc1ccccc1OCn1ccc(C(=O)NCCN2CCOCC2)n1
cytotoxicity at 70.5 h: -12.2%

CC1CCCCN1C(=O)c1ccn(COc2ccc(F)cc2)n1 (stereo unspecified)
cytotoxicity at 70.5 h: -9.66%

O=C(NCCCN1CCOCC1)c1ccn(COc2ccc(Br)cc2)n1
cytotoxicity at 70.5 h: 12.3%

Cc1ccc(NC(=O)C(C)n2ccc(C(F)(F)F)n2)nc1 (stereo unspecified)
cytotoxicity at 70.5 h: 1.64%

Cc1cnc(NC(=O)C(C)n2ccc(C(F)(F)F)n2)s1 (stereo unspecified)
cytotoxicity at 70.5 h: -5.09%

CC(Oc1ccc2c(c1)OCO2)C(=O)Nc1ccon1 (stereo unspecified)
cytotoxicity at 70.5 h: -6.17%

COc1ccccc1N1CCN(C(=O)Cn2nc(C)c(Cl)c2C)CC1
cytotoxicity at 70.5 h: 11.3%

Cc1cc(N2CCC(Cc3ccccc3)CC2)ncn1
cytotoxicity at 70.5 h: -11.5%

CCn1cc(Cl)c(C(=O)NCCCN(C)C)n1
cytotoxicity at 70.5 h: -7.78%

CCOCCCNC(=O)C(C)n1cc(Br)cn1 (stereo unspecified)
cytotoxicity at 70.5 h: 1.42%

CCN1CCN(C(=O)C(C)n2cc(Br)cn2)CC1 (stereo unspecified)
cytotoxicity at 70.5 h: -1.55%

CC(C(=O)N1CCN(c2ccccc2)CC1)n1cc(Br)cn1 (stereo unspecified)
cytotoxicity at 70.5 h: -2.65%

O=C(COc1ccc2c(c1)CCC2)NCc1ccco1
cytotoxicity at 70.5 h: 23.9%

CSc1[nH]nc(NC(=O)c2cccs2)c1C#N
cytotoxicity at 70.5 h: -10.4%

CCN(Cc1nonc1C)C(=O)c1cc(C(F)(F)F)nn1C
cytotoxicity at 70.5 h: -7.63%

CC(Cn1cc(Br)cn1)C(=O)Nc1ccc(Br)cn1 (stereo unspecified)
cytotoxicity at 70.5 h: 3.47%

CC(Cn1cc(Br)cn1)C(=O)Nc1ccncc1 (stereo unspecified)
cytotoxicity at 70.5 h: 6.88%

Cc1cc(C(F)(F)F)nn1C(C)C(=O)Nc1ccc(Cl)cn1 (stereo unspecified)
cytotoxicity at 70.5 h: -6.74%

COc1ccc(C(C)NC(=O)c2nn(C)c(C)c2Br)cc1 (stereo unspecified)
cytotoxicity at 70.5 h: -2.4%

CCn1cc(Br)c(C(=O)NCc2ccc(F)cc2)n1
cytotoxicity at 70.5 h: 4.64%

CCCn1nccc1C(=O)Nc1nc(C)c(C)s1
cytotoxicity at 70.5 h: 11.9%

CCc1ccccc1NC(=O)CCc1cnn(C)c1
cytotoxicity at 70.5 h: -11.3%

CCn1ccc(-c2nnc(SCC(=O)Nc3ccc(C)cc3)n2CC)n1
cytotoxicity at 70.5 h: -13.9%

Cc1cc(C)n(C2=NC(NCCC(C)C)c3c(sc4c3CCCC4)N2)n1 (stereo unspecified)
cytotoxicity at 70.5 h: 1.07%

COCCC(=O)Nc1cnn(COc2ccc(F)cc2Cl)c1
cytotoxicity at 70.5 h: 27.4%

O=C(COc1ccc2c(c1)OCO2)NCc1ccco1
cytotoxicity at 70.5 h: -5.95%

CCCNCc1ncc(C)c(OC)c1C
cytotoxicity at 70.5 h: -6.98%

Cc1cc(=O)n2c3c(cc(S(=O)(=O)NC4CC4)cc13)CCC2
cytotoxicity at 70.5 h: 31.9%

CCCN(C(=O)CS(=O)(=O)c1ccccc1)c1cccc(C)c1
cytotoxicity at 70.5 h: -5.44%

Cn1cc(Br)c(C(=O)NCCn2cc(Br)cn2)n1
cytotoxicity at 70.5 h: 8.47%

COc1ccc(-c2cc(C(=O)N3N=C(C)CC3(O)C(F)(F)F)[nH]n2)cc1 (stereo unspecified)
cytotoxicity at 70.5 h: 12.4%

COc1cccc(-c2cc(C(=O)N3N=C(C)CC3(O)C(F)(F)F)[nH]n2)c1 (stereo unspecified)
cytotoxicity at 70.5 h: -16.8%

O=C(c1ccnn1COc1ccc(Cl)cc1)N1CCOCC1
cytotoxicity at 70.5 h: -6.03%

CCn1cc(NC(=O)C(C)n2ncc(Cl)c2C)c(C(=O)NCC(C)C)n1 (stereo unspecified)
cytotoxicity at 70.5 h: -3.04%

Cc1c(Br)cnn1CCC(=O)N(C)Cc1c(Cl)cnn1C
cytotoxicity at 70.5 h: 30.7%

CS(=O)(=O)Nc1ccn(Cc2ccc(F)cc2Cl)n1
cytotoxicity at 70.5 h: -12.3%

CCS(=O)(=O)Nc1ccn(Cc2cccc(F)c2)n1
cytotoxicity at 70.5 h: -11.5%

Cc1cc(C(F)(F)F)nn1CCCNC(=O)C1CCN(S(C)(=O)=O)CC1
cytotoxicity at 70.5 h: -10.7%

CCn1cc(S(=O)(=O)N2CCN(C(=O)c3cc(Br)cs3)CC2)c(C)n1
cytotoxicity at 70.5 h: 21.7%

CCn1ncc(-c2cc(C(F)F)nc3sc(C(N)=O)c(N)c23)c1C
cytotoxicity at 70.5 h: 9.78%

Cc1c(Br)c(C(F)(F)F)nn1C(C)C(=O)O (stereo unspecified)
cytotoxicity at 70.5 h: -11.2%

Cn1nc(C(=O)N2CCOCC2)cc1C(=O)Nc1ccc(Cl)cc1Cl
cytotoxicity at 70.5 h: -2.86%

COc1cc(NC(=O)NCC2CCCO2)cc(OC)c1OC (stereo unspecified)
cytotoxicity at 70.5 h: -5.38%

Cc1cccc(N2CCCN=C2NC(=O)c2cccc(Cl)c2)c1
cytotoxicity at 70.5 h: -9.98%

CCOc1ccc(N2CCCN=C2NC(=O)c2cccc(C)c2)cc1
cytotoxicity at 70.5 h: -6.22%

CN1CC(Oc2ccc(Cl)cc2)=NC(SCC(=O)Nc2ccccc2)=N1
cytotoxicity at 70.5 h: 7.43%

CN1CC(Oc2ccc(Cl)cc2)=NC(SCC(=O)c2ccccc2)=N1
cytotoxicity at 70.5 h: 14.8%

CC(C)c1cc2c(s1)NC(c1ccccn1)NC2=O (stereo unspecified)
cytotoxicity at 70.5 h: -3.28%

OC1=C2C(=Nc3n[nH]c(O)c3C2c2ccco2)CCC1 (stereo unspecified)
cytotoxicity at 70.5 h: -9.2%

CCOc1ccc(C2C3=C(O)OCC3=Nc3nc(SC)nc(N)c32)cc1 (stereo unspecified)
cytotoxicity at 70.5 h: 9.83%

Cc1nn(C)c2c(N3CCN(C(=O)C4CCCCC4)CC3)ncnc12
cytotoxicity at 70.5 h: 14.6%

Cc1nn(C)c2c(N3CCN(C(=O)C4CCCO4)CC3)ncnc12 (stereo unspecified)
cytotoxicity at 70.5 h: 1.72%

CC(C)N1CCC(c2n[nH]cc2S(C)(=O)=O)CC1
cytotoxicity at 70.5 h: -10.2%

CNC(=O)C1(C)CN(Cc2cn(C)c3ccc(F)cc23)CCO1 (stereo unspecified)
cytotoxicity at 70.5 h: -9.03%

Cc1ncsc1CN1CCOC(C)(C(N)=O)C1 (stereo unspecified)
cytotoxicity at 70.5 h: -1.13%

CC(=O)N1CCC(c2ccnc(Nc3cc(C(F)(F)F)ccn3)n2)C1 (stereo unspecified)
cytotoxicity at 70.5 h: 19.8%

O=C(NCCc1ccccc1)C1CCN(C(=O)Cn2cncn2)C1 (stereo unspecified)
cytotoxicity at 70.5 h: -10.2%

CN(C)Cc1cc(C2CCCN(S(=O)(=O)c3cccc(Cl)c3)C2)nn1C (stereo unspecified)
cytotoxicity at 70.5 h: -14.6%

O[C@H]1CN(Cc2c[nH]nc2-c2ccccc2)CC[C@@]12CCCO2
cytotoxicity at 70.5 h: 15.7%

Cc1cc(Nc2cnccn2)nc(C2CCCN(CCO)C2)n1 (stereo unspecified)
cytotoxicity at 70.5 h: -10.3%

Nc1nccc(C2CCN(CC3CC3)C2)n1 (stereo unspecified)
cytotoxicity at 70.5 h: 17.6%

Cc1cc(-c2c[nH]nc2C2CCCCN2C(=O)c2ccccc2)on1 (stereo unspecified)
cytotoxicity at 70.5 h: -9.53%

CCc1n[nH]c(C(=O)NCCn2nccc2C)c1C
cytotoxicity at 70.5 h: -5.81%

O=C1CCC[C@]2(CN(S(=O)(=O)N3CCOCC3)C[C@H]2c2cccnc2)N1
cytotoxicity at 70.5 h: -4.54%

Nc1nccc(C2CCCN(CC3CC3)C2)n1 (stereo unspecified)
cytotoxicity at 70.5 h: -4.18%

CCn1cc(-c2nccnc2C2CCCN(C(C)=O)C2)cn1 (stereo unspecified)
cytotoxicity at 70.5 h: -4.58%

Cc1cc(C)n(C2CCN(Cc3nc4ccccc4n3C)CC2)n1
cytotoxicity at 70.5 h: 1.81%

C[C@@H]1CN(c2nc(O)cc(Cc3ccccc3F)n2)C[C@H](C)O1
cytotoxicity at 70.5 h: 19.5%

O=C(NCc1ccccn1)c1cncc(C2CCCN2)n1 (stereo unspecified)
cytotoxicity at 70.5 h: 22.2%

CCn1ccc(-c2cc(NCCCOc3cccc(C)c3)nc(C)n2)n1
cytotoxicity at 70.5 h: -6.25%

CCCn1cc(C(=O)N2CCCC2(C)c2nc(C)cc(N)n2)cn1 (stereo unspecified)
cytotoxicity at 70.5 h: -1.03%

c1ccc(N2CCN(Cc3cnc(C4CCCCO4)nc3)CC2)nc1 (stereo unspecified)
cytotoxicity at 70.5 h: -4.5%

CCc1n[nH]c(C(=O)NCCn2ccc(C)n2)c1C
cytotoxicity at 70.5 h: 17.6%

CNc1ncc(CN(C)C2CCN(C(C)C)CC2)cn1
cytotoxicity at 70.5 h: -3.89%

CCCC(=O)N1CCCC(c2ccccn2)C1 (stereo unspecified)
cytotoxicity at 70.5 h: -1.3%

Cn1cc(CN2CCOC(c3nccnc3-c3cccc(F)c3)C2)cn1 (stereo unspecified)
cytotoxicity at 70.5 h: 21.8%

Nc1nccc(C2CCCN2CCc2ccccc2)n1 (stereo unspecified)
cytotoxicity at 70.5 h: -1.57%

CCN(CC)S(=O)(=O)N1CC[C@H](c2ccccc2)[C@@H]2[C@H]1CCCCN2C
cytotoxicity at 70.5 h: -0.108%

COCC(=O)N1CCN(C)C(=O)C(Cc2ccc(-c3cccs3)cc2)C1 (stereo unspecified)
cytotoxicity at 70.5 h: -1.25%

CC(C)C(=O)N1CCC(C)(c2cc[nH]n2)CC1
cytotoxicity at 70.5 h: -0.608%

Cc1nc2cc(C3CCCCN3C(=O)C3CC3)nn2c(O)c1C (stereo unspecified)
cytotoxicity at 70.5 h: -2.34%

Cc1ncsc1C(=O)N1CCCCC1c1cc2nc(C)c(C)c(O)n2n1 (stereo unspecified)
cytotoxicity at 70.5 h: -4.23%

CN(C)CCN(C)C(=O)Cn1cccc2cc(-c3ccc(F)cc3)nc1-2
cytotoxicity at 70.5 h: 4.32%

CC1Cc2ccccc2N1C(=O)Cn1nc(-c2cccs2)ccc1=O (stereo unspecified)
cytotoxicity at 70.5 h: -8.13%

Cc1cccc(CNC(Cc2ccsc2)c2nccs2)n1 (stereo unspecified)
cytotoxicity at 70.5 h: 0.0464%

CC(=O)N1Cc2ccccc2OC2(CCN(C(=O)C3CCOC3)CC2)C1 (stereo unspecified)
cytotoxicity at 70.5 h: -1.13%

Cc1cnc(-c2nc(O)c3c(n2)CN(C(=O)C2CC2)CC3)cn1
cytotoxicity at 70.5 h: -4.33%

Cc1cnc(-c2nc(O)c3c(n2)CN(C(=O)C2CCCO2)CC3)cn1 (stereo unspecified)
cytotoxicity at 70.5 h: -1.18%

COc1ccc(F)cc1-c1ccccc1CC1(C(=O)O)CCOCC1
cytotoxicity at 70.5 h: 27.6%

Nc1cc(-c2cccs2)nn(CC(=O)N2CCc3ccccc32)c1=O
cytotoxicity at 70.5 h: -2.52%

Clc1cccc(Cl)c1CN(CCCN1CCOCC1)Cc1cccnc1
cytotoxicity at 70.5 h: -11.4%

O=C(Cc1cccc(O)c1)N1CCCC(O)(CN2CCOCC2)CC1 (stereo unspecified)
cytotoxicity at 70.5 h: 0.936%

Cc1ccc(N(C)[C@@H]2CC[C@@H]3CN(C(=O)Cc4cccs4)C[C@@H]32)nn1
cytotoxicity at 70.5 h: -5.34%

Cn1cc(CN2CCCC(c3nccnc3-c3cccc(F)c3)C2)cn1 (stereo unspecified)
cytotoxicity at 70.5 h: 16.1%

Cc1c[nH]nc1C1CCN(C(=O)CC2CCCC2)C1 (stereo unspecified)
cytotoxicity at 70.5 h: -6.41%

COc1ccccc1C1Cn2c(C)cnc2CN1Cc1ccc(C)nc1 (stereo unspecified)
cytotoxicity at 70.5 h: 22.5%

CC(NC1(CNS(C)(=O)=O)CCCC1)c1ccccc1 (stereo unspecified)
cytotoxicity at 70.5 h: -16.9%

Cc1ccc(CNCCC(O)(c2nccn2C)C(F)(F)F)o1 (stereo unspecified)
cytotoxicity at 70.5 h: -6.24%

COCC1CCN(CCOc2ccc(C#N)cc2OC)CC1
cytotoxicity at 70.5 h: 20.7%

NC(=O)C1CNCCN1C(=O)COc1ccccc1 (stereo unspecified)
cytotoxicity at 70.5 h: -7.46%

COc1cc2cc(C)c(SCCN3CCCCC3)nc2cc1OC
cytotoxicity at 70.5 h: 4.15%

CC(C)Oc1cccc(CNC(Cc2ccsc2)c2nccs2)c1 (stereo unspecified)
cytotoxicity at 70.5 h: -2.9%

Cc1ccc(C2(CN3CCN(Cc4cnc(C)n4C)CC3)CC2)cc1
cytotoxicity at 70.5 h: 32.9%

CN(C)Cc1cc(C2CCCCN2S(=O)(=O)c2cccc(Cl)c2)nn1C (stereo unspecified)
cytotoxicity at 70.5 h: -3.27%

Cc1cc(N(C)C)nc(C2CCNC2)n1 (stereo unspecified)
cytotoxicity at 70.5 h: 45.3%

CCc1ncc(CN(C)C2CCN(C(C)C)CC2)cn1
cytotoxicity at 70.5 h: 13.4%
